# According to US11779628B2, “Use of cell-permeable peptide inhibitors of the JNK signal transduction pathway for the treatment of various diseases” (Xigen Inflammation Ltd., priority 2014, dated 2023):
# Test system: Brown Norway rats, STZ
# Assay: Diabetic retinopathy prevention study in STZ treated rat (IVT)
# Format: in vivo
# Conditions: 0.2 and 2 μg/eye IVT
# Description: The objective of this study was to determine the ability of XG-102 to prevent diabetic retinopathy when administered by intravitreal injections to streptozotocin (STZ)-treated (hyperglycemic) rats.
# Sterile vials containing 0.0412 g of inducing agent (STZ) were pre-weighed, sealed and transferred to the dosing room for administration to Groups 2 to 4 animals and Spares on Day −7. A duplicate set of empty, appropriately labeled sterile vials were provided. The reconstituted STZ solution was filtered into these vials for dosing. The Reference Item, 0.9% NaCl, was administered as received. XG-102 was prepared using the correction factor 1.383. A stock solution equal to the highest dose level was prepared in vehicle, 0.9% Sodium Chloride for Injection, and sterile filtered through a 0.22 μm polyvinylidene difluoride (PVDF) filter. The lower dose levels were prepared by directly diluting the stock solution. Dose formulations were prepared once at appropriate concentrations to meet dosage level requirements. All dilutions were prepared by directly diluting the stock solution with vehicle. Three dosing aliquots (Days 1, 8 and 15) were prepared and stored in a freezer set to maintain −20° C. Aliquot(s) of each dose level were thawed at ambient temperature on each day of dosing and the solution maintained at room temperature for no longer than 6 hours. […]
compound,measurement,value
CC(C)C[C@@H](NC(=O)[C@@H](Cc1ccccc1)NC(=O)[C@H]1CCCN1C(=O)[C@@H](CCC(N)=O)NC(=O)[C@H](NC(=O)[C@H]1CCCN1C(=O)[C@@H](CCCNC(=N)N)NC(=O)[C@@H](CO)NC(=O)[C@@H](CCC(N)=O)NC(=O)[C@H](N)CC(=O)O)C(C)C)C(=O)N[C@H](CC(N)=O)C(=O)N[C@H](CC(C)C)C(=O)N[C@@H](C(=O)N[C@@H](C(=O)N1CCC[C@@H]1C(=O)N[C@H](CCCNC(=N)N)C(=O)N[C@H](CCCCN)C(=O)N1CCC[C@@H]1C(=O)N[C@H](CCCNC(=N)N)C(=O)N1CCC[C@@H]1C(=O)N1CCC[C@@H]1C(=O)N[C@H](CCCNC(=N)N)C(=O)N[C@H](CCCNC(=N)N)C(=O)N[C@H](CCCNC(=N)N)C(=O)N[C@H](CCC(N)=O)C(=O)N[C@H](CCCNC(=N)N)C(=O)N[C@H](CCCNC(=N)N)C(=O)N[C@H](CCCCN)C(=O)N[C@H](CCCCN)C(=O)N[C@H](CCCNC(=N)N)C(=O)NCC(=O)O)[C@H](C)O)[C@H](C)O [XG-102],"clinical signs, body weights, food consumption","no XG-102-related clinical signs or effects on body weights, body weight gains or food consumption"
same,deaths,no XG-102-related deaths during the study
